Reference: ChEMBL document CHEMBL4665624, “Synthesis of 5-(4-(1H-phenanthro[9,10-d]imidazol-2-yl)benzylidene)thiazolidine-2,4-dione as promising DNA and serum albumin-binding agents and evaluation of antitumor activity” (Eur J Med Chem, 2019)

Key:
MCF7 = experiment: Antitumor activity against human MCF7 cells assessed as cell growth inhibition at 10 uM incubated for 48 hrs by sulforhodamine B assay; assay type: functional; details: read-out: GI
M14 = experiment: Antitumor activity against human M14 cells assessed as cell growth inhibition at 10 uM incubated for 48 hrs by sulforhodamine B assay; assay type: functional; details: read-out: GI
ACHN = experiment: Antitumor activity against human ACHN cells assessed as cell growth inhibition at 10 uM incubated for 48 hrs by sulforhodamine B assay; assay type: functional; details: read-out: GI
COLO 205 = experiment: Antitumor activity against human COLO205 cells assessed as cell growth inhibition at 10 uM incubated for 48 hrs by sulforhodamine B assay; assay type: functional; details: read-out: GI
RPMI-8226 = experiment: Antitumor activity against human RPMI8226 cells assessed as cell growth inhibition at 10 uM incubated for 48 hrs by sulforhodamine B assay; assay type: functional; details: read-out: GI
A498 = experiment: Antitumor activity against human A498 cells assessed as cell growth inhibition at 10 uM incubated for 48 hrs by sulforhodamine B assay; assay type: functional; details: read-out: GI
UACC-62 = experiment: Antitumor activity against human UACC-62 cells assessed as cell growth inhibition at 10 uM incubated for 48 hrs by sulforhodamine B assay; assay type: functional; details: read-out: GI
Malme-3M = experiment: Antitumor activity against human MALME-3M cells assessed as cell growth inhibition at 10 uM incubated for 48 hrs by sulforhodamine B assay; assay type: functional; details: read-out: GI
U-251 = experiment: Antitumor activity against human U251 cells assessed as cell growth inhibition at 10 uM incubated for 48 hrs by sulforhodamine B assay; assay type: functional; details: read-out: GI
SF-268 = experiment: Antitumor activity against human SF268 cells assessed as cell growth inhibition at 10 uM incubated for 48 hrs by sulforhodamine B assay; assay type: functional; details: read-out: GI
HL-60(TB) = experiment: Antitumor activity against human HL-60(TB) cells assessed as cell growth inhibition at 10 uM incubated for 48 hrs by sulforhodamine B assay; assay type: functional; details: read-out: GI
NCI-H522 = experiment: Antitumor activity against human NCI-H522 cells assessed as cell growth inhibition at 10 uM incubated for 48 hrs by sulforhodamine B assay; assay type: functional; details: read-out: GI
SF-295 = experiment: Antitumor activity against human SF295 cells assessed as cell growth inhibition at 10 uM incubated for 48 hrs by sulforhodamine B assay; assay type: functional; details: read-out: GI
HOP-92 = experiment: Antitumor activity against human HOP92 cells assessed as cell growth inhibition at 10 uM incubated for 48 hrs by sulforhodamine B assay; assay type: functional; details: read-out: GI
PC-3 = experiment: Antitumor activity against human PC-3 cells assessed as cell growth inhibition at 10 uM incubated for 48 hrs by sulforhodamine B assay; assay type: functional; details: read-out: GI
Hs-578T = experiment: Antitumor activity against human HS 578T cells assessed as cell growth inhibition at 10 uM incubated for 48 hrs by sulforhodamine B assay; assay type: functional; details: read-out: GI
MDA-MB-435 = experiment: Antitumor activity against human MDA-MB-435 cells assessed as cell growth inhibition at 10 uM incubated for 48 hrs by sulforhodamine B assay; assay type: functional; details: read-out: GI
OVCAR-8 = experiment: Antitumor activity against human OVCAR-8 cells assessed as cell growth inhibition at 10 uM incubated for 48 hrs by sulforhodamine B assay; assay type: functional; details: read-out: GI
CCRF-CEM = experiment: Antitumor activity against human CCRF-CEM cells assessed as cell growth inhibition at 10 uM incubated for 48 hrs by sulforhodamine B assay; assay type: functional; details: read-out: GI
LOX IMVI = experiment: Antitumor activity against human LOX IMVI cells assessed as cell growth inhibition at 10 uM incubated for 48 hrs by sulforhodamine B assay; assay type: functional; details: read-out: GI
SNB-19 = experiment: Antitumor activity against human SNB-19 cells assessed as cell growth inhibition at 10 uM incubated for 48 hrs by sulforhodamine B assay; assay type: functional; details: read-out: GI
UO-31 = experiment: Antitumor activity against human UO-31 cells assessed as cell growth inhibition at 10 uM incubated for 48 hrs by sulforhodamine B assay; assay type: functional; details: read-out: GI
SR = experiment: Antitumor activity against human SR cells assessed as cell growth inhibition at 10 uM incubated for 48 hrs by sulforhodamine B assay; assay type: functional; details: read-out: GI
HCC 2998 = experiment: Antitumor activity against human HCC2998 cells assessed as cell growth inhibition at 10 uM incubated for 48 hrs by sulforhodamine B assay; assay type: functional; details: read-out: GI
SK-MEL-28 = experiment: Antitumor activity against human SK-MEL-28 cells assessed as cell growth inhibition at 10 uM incubated for 48 hrs by sulforhodamine B assay; assay type: functional; details: read-out: GI
MDA-MB-468 = experiment: Antitumor activity against human MDA-MB-468 cells assessed as cell growth inhibition at 10 uM incubated for 48 hrs by sulforhodamine B assay; assay type: functional; details: read-out: GI
OVCAR-4 = experiment: Antitumor activity against human OVCAR-4 cells assessed as cell growth inhibition at 10 uM incubated for 48 hrs by sulforhodamine B assay; assay type: functional; details: read-out: GI
786-0 = experiment: Antitumor activity against human 786-0 cells assessed as cell growth inhibition at 10 uM incubated for 48 hrs by sulforhodamine B assay; assay type: functional; details: read-out: GI
K562 = experiment: Antitumor activity against human K562 cells assessed as cell growth inhibition at 10 uM incubated for 48 hrs by sulforhodamine B assay; assay type: functional; details: read-out: GI
SN12C = experiment: Antitumor activity against human SN12C cells assessed as cell growth inhibition at 10 uM incubated for 48 hrs by sulforhodamine B assay; assay type: functional; details: read-out: GI
MDA-MB-231 = experiment: Antitumor activity against human MDA-MB-231/ATCC cells assessed as cell growth inhibition at 10 uM incubated for 48 hrs by sulforhodamine B assay; assay type: functional; details: read-out: GI
OVCAR-3 = experiment: Antitumor activity against human OVCAR-3 cells assessed as cell growth inhibition at 10 uM incubated for 48 hrs by sulforhodamine B assay; assay type: functional; details: read-out: GI
NCI-H23 = experiment: Antitumor activity against human NCI-H23 cells assessed as cell growth inhibition at 10 uM incubated for 48 hrs by sulforhodamine B assay; assay type: functional; details: read-out: GI
NCI-H226 = experiment: Antitumor activity against human NCI-H226 assessed as cell growth inhibition at 10 uM incubated for 48 hrs by sulforhodamine B assay; assay type: functional; details: read-out: GI
SW-620 = experiment: Antitumor activity against human SW620 cells assessed as cell growth inhibition at 10 uM incubated for 48 hrs by sulforhodamine B assay; details: SW-620, 48 h, read-out: GI
HT-29 = experiment: Antitumor activity against human HT-29 cells assessed as cell growth inhibition at 10 uM incubated for 48 hrs by sulforhodamine B assay; assay type: functional; details: read-out: GI
HCT-15 = experiment: Antitumor activity against human HCT15 cells assessed as cell growth inhibition at 10 uM incubated for 48 hrs by sulforhodamine B assay; assay type: functional; details: read-out: GI
EKVX = experiment: Antitumor activity against human EKVX cells assessed as cell growth inhibition at 10 uM incubated for 48 hrs by sulforhodamine B assay; assay type: functional; details: read-out: GI
BT-549 = experiment: Antitumor activity against human BT-549 cells assessed as cell growth inhibition at 10 uM incubated for 48 hrs by sulforhodamine B assay; assay type: functional; details: read-out: GI
NCI-H460 = experiment: Antitumor activity against human NCI-H460 assessed as cell growth inhibition at 10 uM incubated for 48 hrs by sulforhodamine B assay; assay type: functional; details: read-out: GI
IGROV-1 = experiment: Antitumor activity against human IGROV1 cells assessed as cell growth inhibition at 10 uM incubated for 48 hrs by sulforhodamine B assay; assay type: functional; details: read-out: GI
KM12 = experiment: Antitumor activity against human KM12 cells assessed as cell growth inhibition at 10 uM incubated for 48 hrs by sulforhodamine B assay; assay type: functional; details: read-out: GI
SNB-75 = experiment: Antitumor activity against human SNB-75 cells assessed as cell growth inhibition at 10 uM incubated for 48 hrs by sulforhodamine B assay; assay type: functional; details: read-out: GI
NCI/ADR-RES = experiment: Antitumor activity against human NCI/ADR-RES cells assessed as cell growth inhibition at 10 uM incubated for 48 hrs by sulforhodamine B assay; assay type: functional; details: read-out: GI
RXF 393 = experiment: Antitumor activity against human RXF 393 cells assessed as cell growth inhibition at 10 uM incubated for 48 hrs by sulforhodamine B assay; assay type: functional; details: read-out: GI
HCT-116 = experiment: Antitumor activity against human HCT116 cells assessed as cell growth inhibition at 10 uM incubated for 48 hrs by sulforhodamine B assay; assay type: functional; details: read-out: GI
MOLT-4 = experiment: Antitumor activity against human MOLT4 cells assessed as cell growth inhibition at 10 uM incubated for 48 hrs by sulforhodamine B assay; assay type: functional; details: read-out: GI
SK-OV-3 = experiment: Antitumor activity against human SK-OV-3 cells assessed as cell growth inhibition at 10 uM incubated for 48 hrs by sulforhodamine B assay; assay type: functional; details: read-out: GI

Work on `O=C1c2ccccc2C(=O)c2c1ccc1[nH]c(-c3ccc(-c4nc5c6ccccc6c6ccccc6c5[nH]4)cc3)nc21` yielded an inhibition of growth at 10 µM (MCF7) of under 10%, an inhibition of growth at 10 µM (M14) of under 10% and an inhibition of growth at 10 µM (ACHN) of under 10%. For the same molecule, the inhibition of growth at 10 µM (COLO 205) was under 10%, the inhibition of growth at 10 µM (RPMI-8226) was 10.4% and the inhibition of growth at 10 µM (A498) was under 10%. It also gave an inhibition of growth at 10 µM (UACC-62) of under 10%, an inhibition of growth at 10 µM (Malme-3M) of under 10% and an inhibition of growth at 10 µM (U-251) of under 10%. It also gave an inhibition of growth at 10 µM (SF-268) of under 10%, an inhibition of growth at 10 µM (HL-60(TB)) of under 10% and an inhibition of growth at 10 µM (NCI-H522) of under 10%. For the same molecule, the inhibition of growth at 10 µM (SF-295) was under 10%, the inhibition of growth at 10 µM (HOP-92) was under 10% and the inhibition of growth at 10 µM (PC-3) was under 10%. The inhibition of growth at 10 µM (Hs-578T) was under 10%, the inhibition of growth at 10 µM (MDA-MB-435) was under 10% and the inhibition of growth at 10 µM (OVCAR-8) was under 10%. For the same molecule, the inhibition of growth at 10 µM (CCRF-CEM) was under 10%, the inhibition of growth at 10 µM (LOX IMVI) was under 10% and the inhibition of growth at 10 µM (SNB-19) was under 10%. For the same molecule, the inhibition of growth at 10 µM (UO-31) was 22.6%, the inhibition of growth at 10 µM (SR) was 11.4% and the inhibition of growth at 10 µM (HCC 2998) was under 10%. It also gave an inhibition of growth at 10 µM (SK-MEL-28) of under 10%, an inhibition of growth at 10 µM (MDA-MB-468) of under 10% and an inhibition of growth at 10 µM (OVCAR-4) of 89%. It also gave an inhibition of growth at 10 µM (786-0) of under 10%, an inhibition of growth at 10 µM (K562) of under 10% and an inhibition of growth at 10 µM (SN12C) of under 10%. It also gave an inhibition of growth at 10 µM (MDA-MB-231) of 14.4%, an inhibition of growth at 10 µM (OVCAR-3) of under 10% and an inhibition of growth at 10 µM (NCI-H23) of under 10%. For the same molecule, the inhibition of growth at 10 µM (NCI-H226) was under 10%, the inhibition of growth at 10 µM (SW-620) was under 10% and the inhibition of growth at 10 µM (HT-29) was under 10%. It also gave an inhibition of growth at 10 µM (HCT-15) of under 10%, an inhibition of growth at 10 µM (EKVX) of 10.3% and an inhibition of growth at 10 µM (BT-549) of under 10%. The inhibition of growth at 10 µM (NCI-H460) was under 10%, the inhibition of growth at 10 µM (IGROV-1) was under 10% and the inhibition of growth at 10 µM (KM12) was under 10%. It also gave an inhibition of growth at 10 µM (SNB-75) of 10%, an inhibition of growth at 10 µM (NCI/ADR-RES) of under 10% and an inhibition of growth at 10 µM (RXF 393) of under 10%. The inhibition of growth at 10 µM (HCT-116) was under 10%, the inhibition of growth at 10 µM (MOLT-4) was 12.4% and the inhibition of growth at 10 µM (SK-OV-3) was under 10%.
